In patent US20020055528A1, “Artemisinin analogs having antimalarial, antiproliferative, and antitumor activities and chemoselective methods of making the same” (priority 1999, published 2002):
Where two headings read alike, the source gives them in different places.

Key:
[1] = tested on: K-562; assay: NCI 60 cell line screen (SRB), Leukemia; assay type: cell-based; details: for Log10TGI: PG=0
[2] = tested on: MOLT-4; details: for drug concentration for primary growth inhibition (percentage growth +50): FIGS. 6a-6e; for Log10TGI: PG=0
Experimental: The screening assay is performed on 96-well microtitre plates. Relatively high initial inoculation densities are used, in order to permit measurement of “time-zero” values and to enhance the screen's ability to detect and provide some differentiation between antiproliferative and cytotoxic response parameters. […] The inoculated microtitre plates are pre-incubated for 24 hours at 37θC prior to drug additions. The five drug dilutions tested routinely range from 10^−4 to 10^−8 molar. Higher or lower concentration ranges may be selected on a nonroutine basis if appropriate solubility and/or prior biological information or other screening data so dictate. Duplicate wells are prepared for all concentrations, (concentration is often denoted by placing brackets around a number); “time-zero” and “no drug” controls are also provided for each test. The minimum amount of compound required for a one-time evaluation in the routine screen can be calculated from the knowledge that each test requires a total of approximately 40 ml (0.04 liter) of cell culture medium containing the highest desired drug concentration. Thus, the amount (grams) of sample required (assuming an upper test concentration limit of 10^−4 M) is: molecular weight of compound×[…]. After a 48 hour incubation (37θC) with the test compound, the cells are fixed in situ to the bottoms of the microtitre wells by addition of 50 ul of either 50% trichloroacetic acid (for adherent cell lines) or 80% trichloroacetic acid (for settled cell suspension lines), followed by incubation for 60 minutes at 4θC. The cellular protein in each well is assayed using a sulforhodamine B (SRB) stain procedure. Briefly, after discarding the supernatants, the microtitre plates are washed 5 times with deionized water and air-dried. One hundred microliters of SRB solution (0.4% w/v in 1% acetic acid) is added to each microtitre well and incubated for 10 minutes at room temperature. Unbound SRB is removed by washing 5 times with 1 % acetic acid. The plates are air-dried, the bound stain is solubilized with Tris buffer, and the optical densities read at 515 nm. SRB is a bright pink anionic dye which, in dilute acetic acid, binds electrostatically to the basic amino acids of TCA-fixed cells. Cryopreserved master stocks of all the lines are maintained, and cultures used for screening are replaced from the master stock after no more than twenty passages in the screening laboratory. The cell line panel consists of 60 lines, organized into nine, disease-related subpanels including leukemia, non-small-cell lung cancer, colon, CNS, melanoma, ovarian, renal, prostate and breast cancers.
The response parameters G150 and LC50 are interpolated values representing the concentrations at which the percentage growth (PG) is +50 and −50, respectively:
GI50 is the concentration for which the PG=+50. At this value the increase from time tzero, in the number or mass of cells in the test well is only 50% as much as the corresponding increase in the control well during this period of the experiment, see Table II. A drug effect of this intensity is interpreted as primary growth inhibition.
TGI is the concentration for which PG=0. At this value the number or mass of cells in the well at the end of the experiment equals the number or mass of cells in the well at time tzero, see Table III. A drug effect of this intensity is regarded as cytostasis.
LC50 is the concentration for which the PG=−50. At this value, the number or mass of cells in the test well at the end of the experiment is half that at time tzero, see Table IV. This is interpreted as cytotoxicity.

[3] = tested on: NCI-H226; assay: NCI 60 cell line screen (SRB), Non-Small Cell Lung Cancer; assay type: cell-based; details: for Log10TGI: PG=0
[4] = tested on: NCI-H322M; assay: as above; assay type: cell-based; details: for Log10TGI: PG=0; for Log10GI50: PG=+50
[5] = tested on: NCI-H460; assay: as above; assay type: cell-based; details: for Log10TGI: PG=0; for Log10 GI50 or Log10 LC50: PG=+50
[6] = tested on: NCI-H522; assay: as above; assay type: cell-based; details: for Log10TGI: PG=0
[7] = tested on: U251; assay: NCI 60 cell line screen (SRB), CNS Cancer; assay type: cell-based; details: for Log10TGI: PG=0
[8] = tested on: LOX IMVI; assay: NCI 60 cell line screen (SRB), Melanoma; assay type: cell-based; details: for Log10TGI: PG=0
[9] = tested on: UACC-257; assay: NCI 60 cell line screen (SRB), Melanoma; assay type: cell-based; details: for Log10TGI: PG=0
[10] = tested on: SK-MEL-5; assay: NCI 60 cell line screen (SRB), Melanoma; assay type: cell-based; details: for Log10TGI: PG=0
[11] = tested on: CAKI-1; assay: NCI 60 cell line screen (SRB), Renal Cancer; assay type: cell-based
[12] = tested on: RXF 393; assay: NCI 60 cell line screen (SRB), Renal Cancer; assay type: cell-based; details: for Log10TGI: PG=0
[13] = tested on: PC-3; assay: NCI 60 cell line screen (SRB), Prostate Cancer; assay type: cell-based; details: for Log10TGI: PG=0
[14] = tested on: DU-145; assay: NCI 60 cell line screen (SRB), Prostate Cancer; assay type: cell-based; details: for Log10TGI: PG=0
[15] = tested on: MDA-MB231/ATCC; assay: NCI 60 cell line screen (SRB), Breast Cancer; assay type: cell-based; details: MDA- (first line of MDA-MB231/ATCC); for Log10TGI: PG=0
[16] = Table IV (LC50, PG=−50), MOLT−4

CC1=C(C=Cc2cccc(C=CC3=C(C)C4CCC(C)C5CCC6(C)OOC45C(O3)O6)c2)OC2OC3(C)CCC4C(C)CCC1C24OO3 (stereo not shown) [VII-h]
Log10TGI [1]: −7.70 log10M | Log10GI50 ([1]; PG=+50): −7.70 log10M | Log10GI50 ([1]; Table IV (LC50, PG=−50)): >−4.00 log10M | drug concentration for cytotoxicity (percentage growth −50) [2]: greater than 10^−4 M | drug concentration for primary growth inhibition (percentage growth +50) ([2]; MOLT-4): greater than 10^−8 molar | Log10GI50 ([2]; MOLT-4, PG=+50): <−8.00 log10M | Log10TGI ([2]; MOLT−4): <−8.00 log10M | Log10GI50 [2, 16]: >−4.00 log10M | Log10TGI [3]: >−4.00 log10M | Log10GI50 ([3]; PG=+50): >−4.00 log10M | Log10GI50 ([3]; Table IV (LC50, PG=−50)): >−4.00 log10M | Log10TGI [4]: −5.88 log10M | Log10GI50 [4]: −7.56 log10M | Log10TGI [5]: >−4.00 log10M | Log10 GI50 or Log10 LC50 [5]: −5.59 log10M | Log10TGI [6]: >−4.00 log10M | Log10GI50 ([6]; PG=+50): −7.22 log10M | Log10GI50 ([6]; Table IV (LC50, PG=−50)): >−4.00 log10M | Log10TGI [7]: >−4.00 log10M | Log10GI50 ([7]; PG=+50): −7.26 log10M | Log10GI50 ([7]; Table IV (LC50, PG=−50)): >−4.00 log10M | Log10TGI [8]: −5.67 log10M | Log10GI50 ([8]; PG=+50): −7.40 log10M | Log10GI50 ([8]; Table IV (LC50, PG=−50)): −4.15 log10M | Log10TGI [9]: >−4.00 log10M | Log10 GI50 (PG=+50) or Log10 LC50 (PG=−50) ([9]; PG=+50): −7.21 log10M | Log10 GI50 (PG=+50) or Log10 LC50 (PG=−50) ([9]; Table IV (LC50, PG=−50)): >−4.00 log10M | Log10TGI [10]: −6.21 log10M | Log10 GI50 or LC50 ([10]; PG=+50): −7.36 log10M | Log10TGI ([11]; PG=0): >−4.00 log10M | Log10GI50 ([11]; PG=+50): −6.28 log10M | Log10GI50 ([11]; Table IV (LC50, PG=−50)): >−4.00 log10M | Log10TGI [12]: >−4.00 log10M | Log10GI50 ([12]; PG=+50): −6.48 log10M | Log10GI50 ([12]; Table IV (LC50, PG=−50)): >−4.00 log10M | Log10TGI [13]: >−4.00 log10M | Log10 GI50 (PG=+50) or LC50 (PG=−50) ([13]; PG=+50): −7.70 log10M | Log10 GI50 (PG=+50) or LC50 (PG=−50) ([13]; Table IV (LC50, PG=−50)): >−4.00 log10M | Log10TGI [14]: >−4.00 log10M | Log10GI50 ([14]; PG=+50): −6.16 log10M | Log10GI50 ([14]; Table IV (LC50, PG=−50)): >−4.00 log10M | Log10TGI [15]: −5.35 log10M | Log10 GI50 or LC50 (per conditions) ([15]; PG=+50): −6.49 log10M | Log10 GI50 or LC50 (per conditions) ([15]; Table IV (LC50, PG=−50)): >−4.00 log10M

CC1=C(C=Cc2cccc(C=CC3=C(C)C4CCC(C)C5CCC6(C)OOC45C(O3)O6)c2)OC2OC3(C)CCC4C(C)CCC1C24OO3 (stereo not shown) [VII-g]
Log10TGI [1]: −7.31 log10M | Log10GI50 ([1]; PG=+50): −7.31 log10M | Log10GI50 ([1]; Table IV (LC50, PG=−50)): >−4.00 log10M | drug concentration for cytotoxicity (percentage growth −50) [2]: greater than 10^−4 M | drug concentration for primary growth inhibition (percentage growth +50) ([2]; MOLT-4): > 10^−7 molar | Log10GI50 ([2]; MOLT-4, PG=+50): −7.30 log10M | Log10TGI ([2]; MOLT−4): −7.30 log10M | Log10GI50 [2, 16]: >−4.00 log10M | Log10TGI [3]: >−4.00 log10M | Log10GI50 ([3]; PG=+50): −4.91 log10M | Log10GI50 ([3]; Table IV (LC50, PG=−50)): >−4.00 log10M | Log10TGI [4]: −4.87 log10M | Log10GI50 [4]: −7.42 log10M | Log10TGI [5]: >−4.00 log10M | Log10 GI50 or Log10 LC50 [5]: −5.13 log10M | Log10TGI [6]: >−4.00 log10M | Log10GI50 ([6]; PG=+50): −6.99 log10M | Log10GI50 ([6]; Table IV (LC50, PG=−50)): >−4.00 log10M | Log10TGI [7]: >−4.00 log10M | Log10GI50 ([7]; PG=+50): −6.86 log10M | Log10GI50 ([7]; Table IV (LC50, PG=−50)): >−4.00 log10M | Log10TGI [8]: −5.06 log10M | Log10GI50 ([8]; PG=+50): −7.07 log10M | Log10GI50 ([8]; Table IV (LC50, PG=−50)): >−4.00 log10M | Log10TGI [9]: −4.58 log10M | Log10 GI50 (PG=+50) or Log10 LC50 (PG=−50) ([9]; PG=+50): −7.09 log10M | Log10 GI50 (PG=+50) or Log10 LC50 (PG=−50) ([9]; Table IV (LC50, PG=−50)): >−4.00 log10M | Log10TGI [10]: −5.16 log10M | Log10 GI50 or LC50 ([10]; PG=+50): −6.71 log10M | Log10 GI50 or LC50 ([10]; Table IV (LC50, PG=−50)): >−4.00 log10M | Log10GI50 ([11]; PG=+50): −6.22 log10M | Log10GI50 ([11]; Table IV (LC50, PG=−50)): >−4.00 log10M | Log10TGI [12]: >−4.00 log10M | Log10GI50 ([12]; PG=+50): −5.80 log10M | Log10GI50 ([12]; Table IV (LC50, PG=−50)): >−4.00 log10M | Log10TGI [13]: >−4.00 log10M | Log10 GI50 (PG=+50) or LC50 (PG=−50) ([13]; PG=+50): −7.32 log10M | Log10 GI50 (PG=+50) or LC50 (PG=−50) ([13]; Table IV (LC50, PG=−50)): >−4.00 log10M | Log10TGI [14]: >−4.00 log10M | Log10GI50 ([14]; PG=+50): −5.71 log10M | Log10GI50 ([14]; Table IV (LC50, PG=−50)): >−4.00 log10M | Log10TGI [15]: −4.74 log10M | Log10 GI50 or LC50 (per conditions) ([15]; PG=+50): −6.07 log10M | Log10 GI50 or LC50 (per conditions) ([15]; Table IV (LC50, PG=−50)): >−4.00 log10M
